Data from patent publication US7579323B1, “Hemiasterlin analogs” (The University of British Columbia, priority 1997, dated 2009).
Where a name gives a salt, the structure may show the parent alone. Read-outs that look alike come from different tables or passages of the source.

Experiments:
[1] = test system: p53+ and p53− variants of human breast cancer MCF-7 cells and A549 tumor cells; assay: Assay for cytotoxicity (J. Immunol. Methods 65:55-63), SPA-110 compared to hemiasterlin; format: cell-based; conditions: MCF-7 p53+ and p53− and A549 cells; FIGS. 5A and 5B; naturally occurring compound = hemiasterlin
Experimental: Cytotoxicity of SPA-110 compared to hemiasterlin as against p53+ and p53− variants of human breast cancer MCF-7 cells and A549 tumor cells was determined according to the methods described in J. Immunol. Methods 65:55-63 (1983).

MCF-7 mp53− cells = assay: Assay for antimitotic activity, ELISA with mitosis-specific antibody TG-3; format: cell-based, human; conditions: 20 hours incubation, FIG. 6, naturally occurring compound = hemiasterlin
Experimental: Antimitotic activity is detected by enzyme-linked immunosorbent assay using a mitosis-specific antibody, TG-3 (from Albert Einstein College of Yeshiva University, Bronx, N.Y.; and see: PCT application published Jul. 4, 1996 under WO96/20218).
MCF-7 mp 53^− cells (expressing a dominant-negative p53 mutation as described in S. Fan, et al. […] Cancer Research 55:1649-1654) were cultured as monolayers in DMEM supplemented with 10% fetal bovine serum, 2 mM L-glutamine, 50 units/ml penicillin, 50 μg/ml streptomycin, 1 mM sodium pyruvate, MEM non-essential amino acids, 1 μg/ml bovine insulin, 1 μg/ml hydrocortisone, 1 ng/ml human epidermal growth factor, and 1 ng/ml β-estradiol at 37° C. in humidified 5% CO2. The cells were seeded at 10,000 cells per well of 96-well polystyrene tissue culture plates (Falcon) in a volume of 200 μl cell culture medium. The cells were allowed to grow for 24 hours and compounds were added at about 1 μg/ml or 10 μg/ml (from 1000-fold stocks in dimethylsulfoxide) and the cells were incubated for 20 hours. Nocodazole (Sigma) served as a positive control. […] 100 μl of 120 mM Na2HPO41 100 mM citric acid, pH 4.0 containing 0.5 mg/ml 2,2′-azino-bis(3-ethylbenzthiazoline-6-sulfonic acid) and 0.01% hydrogen peroxide was added for 1 hour at room temperature and the plates were read at 405 nm using a BioTek plate reader.

[2] = test system: human colon carcinoma LOVO; format: in vivo, Athymic nu/nu female mice; conditions: for % T/C day 7 / % T/C day 14 / % T/C day 21 / % T/C day 28: LOVO xenograft, SPA-110 intravenously, Vincristine intraperitoneally, p≦0.05; for % T/C day 7: day 7 post staging; for % T/C day 14: day 14 post staging; for % T/C day 21: day 21 post staging; for % T/C day 28: day 28 post staging
Experimental: The compound SPA-110 was evaluated in vivo using standard pharmacological test procedures which measure its ability to inhibit the growth of human tumor xenografts. The human colon carcinoma LOVO (American Type Culture Collection, Rockville, Md. #CCL-229) was grown in tissue culture in RPMI supplemented with 10% FBS. Athymic nu/nu female mice (Charles River, Wilmington, Mass.) were injected sub-cutaneously in the flank area with 7.0×10^6 LOVO cells. When tumors attained a mass of between 80 and 120 mg, the mice were randomized into treatment groups (day zero). Animals were treated intravenously once a day on days 1, 5, and 9 post staging (day zero) with 1 mg/kg/dose of SPA-110 prepared in 2.5% ethanol in saline or with saline as the vehicle control. Some animals were treated intraperitonealy once a day on days 1, 5 and 9 post staging with 1 mg/kg/dose Vincristine as a positive control. Tumor mass was determined every 7 days [(length×width^2)/2] for 28 days post staging. RTG or relative tumor growth (Mean tumor mass on days 7, 14, 21 and 28 divided by the mean tumor mass on day zero) was determined for each treatment group. % T/C was calculated as RTC (treated group) % RTC (vehicle control group)×100. Statistical analysis (Student-t-test) of log relative tumor growth was used to compare treated verses control group in each experiment. A p-value (p≦0.05), which indicates a statistically significant reduction in relative tumor growth, was obtained in each case. 5 of 5 animals treated at day 28 with SPA-110 survived. 9 of 10 animals treated at day 28 with vincristine survived.

**Q.** Which “Cytotoxicity compared to hemiasterlin” value [1] does the source give for `CN[C@H](C(=O)NC(C(=O)N(C)C(/C=C(\C)C(=O)O)C(C)C)C(C)(C)C)C(C)(C)c1ccccc1` (stereo in doubt) [SPA-110, SPA 110-trifluoroacetate salt] here?
**A.** The value was “more cytotoxic in some instances than the naturally occurring compound”.

**Q.** And the “Antimitotic activity compared to hemiasterlin” value (MCF-7 mp53− cells)?
**A.** Its value is “considerably greater antimitotic activity than the naturally occurring compound”.

**Q.** And the “Animals surviving at day 28” value ([2]; LOVO xenograft mice, day 28, 1 mg/kg/dose on days 1, 5, 9)?
**A.** The value was 5 of 5.

**Q.** What about the “% T/C day 7” value ([2]; 1 mg/kg/dose on days 1, 5, 9) of the same compound?
**A.** Its value is 16%.

**Q.** What about the “% T/C day 14” value ([2]; 1 mg/kg/dose on days 1, 5, 9) of the same compound?
**A.** Its value is 18%.

**Q.** And the “% T/C day 21” value ([2]; 1 mg/kg/dose on days 1, 5, 9)?
**A.** Its value is 30%.

**Q.** And the “% T/C day 28” value ([2]; 1 mg/kg/dose on days 1, 5, 9)?
**A.** Its value is 47%.

**Q.** How did the “% T/C day 7” value ([2]; 1 mg/kg/dose on days 1, 5, 9) turn out when `CC[C@]1(O)C[C@H]2CN(CCc3c([nH]c4ccccc34)[C@@](C(=O)OC)(c3cc4c(cc3OC)N(C=O)[C@H]3[C@@](O)(C(=O)OC)[C@H](OC(C)=O)[C@]5(CC)C=CCN6CC[C@]43[C@@H]65)C2)C1` [Vincristine, reference compound] was run?
**A.** The value was 34%.

**Q.** What about the “% T/C day 14” value ([2]; 1 mg/kg/dose on days 1, 5, 9) of the same compound?
**A.** Its value is 37%.

**Q.** What about the “% T/C day 21” value ([2]; 1 mg/kg/dose on days 1, 5, 9) of the same compound?
**A.** Its value is 44%.

**Q.** What about the “% T/C day 28” value ([2]; 1 mg/kg/dose on days 1, 5, 9) of the same compound?
**A.** The value was 47%.

**Q.** What about the “Animals surviving at day 28” value ([2]; female, athymic nu/nu, mouse, in vivo, 1 mg/kg, 28 days) of the same compound?
**A.** The value was 9 of 10.
